Results as given in patent US11634452B2, “Compounds for treating neurodegenerative disorders” (ETHNODYNE, priority 2017, dated 2023).
“Also recorded” adds a separate entry of the source.

Test system: primary rat dopaminergic neurons (TH positive neurons) injured with 6-OHDA
Assay: Neuroprotective effect following exposure to 6-OHDA, with or without pathway inhibitors
Type: cell-based
Method: This study investigated the mode of action of CR777 on rat primary mesencephalic cultures following exposure to 6-OHDA. The effect of CR777 on level of GDNF and BDNF mRNA was investigated after 24 h 6-OHDA incubation and CR777. The main pathways of survival, regulation of the apoptosis and neuronal growth were investigated in presence of CR777 and inhibitors of these different pathways. The following pathways were investigated using antagonists of different proteins of interest: • RAS (small GTPase)/RAF (proto-oncogene Serine/threonine kinase); • Peroxisome proliferator-activated receptor gamma (PPAR-γ) (nuclear receptor) • The Pi3K/AKT/mTor (cell signaling pathway that plays a key role in cellular homeostasis through its role in regulation of apoptosis, cell growth, cell cycle). • NO (nitric oxide) pathway
Rat dopaminergic neurons were cultured as described in Example 4.
On day 6 of culture, the medium was removed and fresh medium was added, without or with 6-OHDA (Sigma, Batch: 083M4624V) at 20 μM diluted in control medium and let for 48 h. In parallel, all inhibitors were solved in culture medium and were added 2 h before the 6-OHDA application (namely 1 h before test compounds application).
CR777 was solved in DMSO at 10 mM, diluted in culture medium and then pre-incubated with mesencephalic neurons 1 hour before the 6-OHDA application (48 h). 6 wells per condition were assessed.
For survival and α-syn aggregation, compound was tested on 1 culture in a 96 well-plate (6 wells per condition), was pre-incubated 1 hour before 6-OHDA and let for 48 hours.
The following conditions were assessed: • Control (culture medium) • +6-OHDA (20 μM, 48 h) • +6-OHDA (20 μM, 48 h)+CR777 1 μM • +6-OHDA (20 μM, 48 h)+CR777 100 nM • +6-OHDA (20 μM, 48 h)+CR777 10 nM • +6-OHDA (20 μM, 48 h)+CR777 1 nM
For pathway investigation, the compound was tested on one primary dopaminergic culture in 96 well plates (6 wells per conditions).
Inhibitors were pre-incubated for 2 hours before 6-OHDA application and CR777 was pre-incubated 1 hour before 6-OHDA application.
The antagonists/inhibitors used in the experiments are the following: • FTS: farnesylthiosalicylic acid selectively disrupts the association of chronically active Ras proteins with the plasma membrane. • BEZ-235: dual PI3K/mTOR inhibitor. • T0070907: selective PPAR-γ antagonist • L-NAME (Nitro-L-arginine methyl ester): precursor to NOS inhibitor, L-NNA—requires bioactivation to become a fully functional inhibitor. • ABT-199: selective inhibitor of Bcl-2.
48 hours after intoxication, the cell culture supernatant was taken off and the dopaminergic neurons were fixed by a solution of 4% paraformaldehyde in PBS, pH=7.3 for 20 min at room temperature.
After permeabilization with 0.1% of saponin, cells were incubated for 2 hours with:
monoclonal Anti-Tyrosine Hydroxylase (TH) antibody produced in mouse at dilution of 1/10000 in PBS containing 1% FCS, 0.1% saponin,
polyclonal anti-α-syn antibody produced in rabbit at dilution of 1/200 for 2 h at room temperature.
For each condition, 20 pictures/well (representative of ˜the all well area) were automatically taken using ImageXpress (Molecular Devices) with 10× magnification. All images were taken with the same conditions. Analysis were automatically performed by using Custom Module Editor (Molecular Devices).
The following endpoint was investigated for each culture well: • The total dopaminergic neuron survival (TH staining), • The total area of α-syn on TH positive neuron (overlapping α-syn/TH)
After permeabilization with 0.1% of saponin, cells were incubated for 2 hours with monoclonal Anti-Tyrosine Hydroxylase (TH) antibody produced in mouse at dilution of 1/10000 in PBS containing 1% FCS, 0.1% saponin, for 2 h at room temperature.
The total dopaminergic neuron survival (TH staining) was investigated for each culture well.

CC1=C(CO)C(=O)O[C@@H]([C@@H](C)[C@H]2CCC3C4C[C@H](SC[C@H](NC(=O)CC[C@@H](N)C(=O)O)C(=O)NCC(=O)O)[C@]5(O)[C@@H](O)C=CC(=O)[C@]5(C)C4CC[C@@]32C)C1 (some centres unmarked) [CR777]
neuroprotective effect (TH neuron survival) in presence of Bcl2 pathway inhibitor (CR777 10 nM + ABT 199 (5 μM), 6-OHDA 20 μM): did not induce any changes | neuroprotective effect (TH neuron survival) in presence of PI3K/AKT/mTOR pathway inhibitor (CR777 10 nM + BEZ235 (40 nM), 6-OHDA 20 μM): fully abolished | neuroprotective effect (TH neuron survival) in presence of Ras/Raf pathway inhibitor (CR777 10 nM + FTS (4 μM), 6-OHDA 20 μM): did not induce any changes | neuroprotective effect (TH neuron survival) in presence of nNOS pathway inhibitor (CR777 10 nM + L-NAME (100 μM), 6-OHDA 20 μM): did not induce any changes | neuroprotective effect (TH neuron survival) in presence of PPARγ pathway inhibitor (CR777 10 nM + T0070907 (1 μM), 6-OHDA 20 μM): no effect was observed | TH positive neuron survival (CR777 10 nM added 1 h before 6-OHDA (20 μM, 48 h), bell shape curve): significantly protected neurons from death; also recorded: significant protective effect; also recorded: able to protect TH positive neurons | α-syn aggregation in TH positive neurons (CR777 10 and 100 nM, 6-OHDA 20 μM, 48 h): able to reduce the aggregation; also recorded: partially protected | dopaminergic neurite network (all concentrations tested (1 nM to 1 μM), 6-OHDA 20 μM, 48 h): significant protective effect
